# Source: patent US8501732B2, “Aminomethyl quinolone compounds” (Hoffmann-La Roche Inc., priority 2011, dated 2013)
# Counter-ions that a name gives are not always drawn.
# Tests used:
# JNK1 = JNK1 (Homo sapiens (Human), UniProt P45983); assay: In Vitro JNK1 Assay (TR-FRET, phosphorylation of GST-c-Jun); assay type: biochemical; details: 0.2 nM active JNK1 kinase, 26.7 nM GST-c-Jun, 2 μM ATP, 30 min at room temperature
# Procedure, shortened: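 GST-c-Jun (residues 1-79) phosphorylation by JNK1 in 50 mM HEPES pH 7.0, MgCl2, 1 mM DTT, 0.1 mM Na3VO4, 0.2 mg/mL BSA, 30 min at room temperature. Stopped with EDTA plus anti-phospho-c-Jun antibody and read by TR-FRET 1 hr later. IC50 from percent inhibition over 10 serial dilutions.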
# [1] = test system: phospho(Ser63)-c-jun in HK-2 cells; assay: Cell-Based Assay for JNK Inhibitors (in-cell ELISA, phospho(Ser63)-c-jun after TNFα); details: HK-2 cells (human proximal tubule cells), 60 minutes compound, then 10 ng/mL TNFα for 30 minutes
# Procedure, shortened: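 HK-2 human proximal tubule cells were seeded at 40,000 cells/well, cultured 24 h, then serum-starved 16–24 h before TNFα stimulation with compound. Phospho(Ser63)-c-jun was quantified by in-cell ELISA on fixed, permeabilised cells, using a rabbit phospho-specific primary (overnight, 4 °C) and an HRP-linked anti-rabbit secondary. Absorbance was read at 450 nm.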
# Sequence of JNK1 (P45983 whole entry, the tested form may be a part): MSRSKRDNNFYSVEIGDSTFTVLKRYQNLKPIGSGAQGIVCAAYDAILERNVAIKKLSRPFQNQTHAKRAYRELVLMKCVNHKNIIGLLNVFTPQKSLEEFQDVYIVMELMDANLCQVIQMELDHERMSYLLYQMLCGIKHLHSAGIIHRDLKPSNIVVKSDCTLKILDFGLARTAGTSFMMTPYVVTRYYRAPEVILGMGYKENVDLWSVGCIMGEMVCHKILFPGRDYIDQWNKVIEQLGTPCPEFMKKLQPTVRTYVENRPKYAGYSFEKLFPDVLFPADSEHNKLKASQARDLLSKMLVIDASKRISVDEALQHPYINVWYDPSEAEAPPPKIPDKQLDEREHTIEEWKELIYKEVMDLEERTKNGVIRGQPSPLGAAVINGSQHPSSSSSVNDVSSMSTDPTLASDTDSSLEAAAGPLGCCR
SMILES,IC50 (JNK1),EC50 [1]
"CN(C)C(=O)c1c(CNC(=O)c2ccc(S(C)(=O)=O)cc2)c(=O)c2ccc(Cl)cc2n1-c1ccccc1 [Example I-19, 7-Chloro-3-[(4-methanesulfonyl-benzoylamino)-methyl]-4-oxo-1-phenyl-1,4-di-hydro-quinoline-2-carboxylic acid dimethylamide]",180 nM,30 µM
"O=c1c(CNc2ncnc3cc(F)ccc23)cn(-c2ccccc2)c2cc(Cl)ccc12 [Example I-172, 7-Chloro-3-[(7-fluoro-quinazolin-4-ylamino)-methyl]-1-phenyl-1H-quinolin-4-one]",79 nM,100 µM
"COC(=O)c1c(CNC(=O)C2CCN(C(=O)OC(C)(C)C)CC2)c(=O)c2ccc(Cl)cc2n1-c1ccccc1 [Example I-128, 3-{[(1-tert-Butoxycarbonyl-piperidine-4-carbonyl)-amino]-methyl}-7-chloro-4-oxo-1-phenyl-1,4-dihydro-quinoline-2-carboxylic acid methyl ester]",35 nM,100 µM
"Cn1cc(C(=O)NCc2cn(-c3ccccc3F)c3cc(F)ccc3c2=O)cn1 [Example I-104, 1-Methyl-1H-pyrazole-4-carboxylic acid [7-fluoro-1-(2-fluoro-phenyl)-4-oxo-1,4-dihydro-quinolin-3-ylmethyl]-amide]",120 nM,100 µM
"O=C(NCc1cn(-c2ccccc2F)c2cc(F)ccc2c1=O)c1ccc(N2CCC(CO)CC2)nc1 [Example I-106, 4-Hydroxymethyl-3,4,5,6-tetrahydro-2H-[1,2′]bipyridinyl-5′-carboxylic acid [7-fluoro-1-(2-fluoro-phenyl)-4-oxo-1,4-dihydro-quinolin-3-ylmethyl]-amide]",52 nM,50 µM
"CN(C)C(=O)c1c(CNC(=O)c2ccc(N3CCCCC3)nc2)c(=O)c2ccc(Cl)cc2n1-c1ccccc1 [Example I-28, 3,4,5,6-Tetrahydro-2H-[1,2′]bipyridinyl-5′-carboxylic acid (7-chloro-2-dimethylcarbamoyl-4-oxo-1-phenyl-1,4-dihydro-quinolin-3-ylmethyl)-amide trifluoroacetate salt]",91 nM,9.7 µM
"COC(=O)c1c(CNC(=O)c2ccc(C(C)(C)C)cc2)c(=O)c2ccc(OC)cc2n1-c1ccccc1 [Example I-163, 3-[(4-tert-Butyl-benzoylamino)-methyl]-7-methoxy-4-oxo-1-phenyl-1,4-dihydro-quinoline-2-carboxylic acid methyl ester]",47 nM,14 µM
"CN(C)c1ccc(C(=O)NCc2cn(-c3ccccc3)c3cc(Cl)ccc3c2=O)cn1 [Example I-79, N-(7-Chloro-4-oxo-1-phenyl-1,4-dihydro-quinolin-3-ylmethyl)-6-dimethylamino-nicotinamide]",55 nM,46 µM
"CN(C)C(=O)c1c(CNC(=O)c2ccc3ncsc3c2)c(=O)c2ccc(Cl)cc2n1-c1ccccc1 [Example I-16, 3-{[(Benzothiazole-6-carbonyl)-amino]-methyl}-7-chloro-4-oxo-1-phenyl-1,4-dihydro-quinoline-2-carboxylic acid dimethylamide]",66 nM,35 µM
"NS(=O)(=O)c1ccc(C(=O)NCc2cn(-c3ccccc3)c3cc(Cl)ccc3c2=O)cc1 [Example I-36, N-(7-Chloro-4-oxo-1-phenyl-1,4-dihydro-quinolin-3-ylmethyl)-4-sulfamoyl-benzamide]",55 nM,100 µM
"CN(C)C(=O)c1c(CNC(=O)c2ccc(N3CCC(CO)CC3)nc2)c(=O)c2ccc(Cl)cc2n1-c1ccccc1 [Example I-24, 4-Hydroxymethyl-3,4,5,6-tetrahydro-2H-[1,2′]bipyridinyl-5′-carboxylic acid (7-chloro-2-dimethylcarbamoyl-4-oxo-1-phenyl-1,4-dihydro-quinolin-3-ylmethyl)-amide]",140 nM,11 µM
"O=C(NCc1cn(-c2ccccc2)c2cc(Cl)ccc2c1=O)c1ccc(N2CCOCC2)nc1 [Example I-40, N-(7-Chloro-4-oxo-1-phenyl-1,4-dihydro-quinolin-3-ylmethyl)-6-morpholin-4-yl-nicotinamide]",84 nM,100 µM
"O=C(NCc1cn(-c2ccccc2)c2cc(Cl)ccc2c1=O)c1ccc(N2CCNCC2)nc1 [Example I-85, N-(7-Chloro-4-oxo-1-phenyl-1,4-dihydro-quinolin-3-ylmethyl)-6-piperazin-1-yl-nicotinamide]",110 nM,72 µM
"COC(=O)c1c(CNC(=O)c2ccc(Cl)cc2)c(=O)c2ccc(OC)cc2n1-c1ccccc1 [Example I-168, 3-[(4-Chloro-benzoylamino)-methyl]-7-methoxy-4-oxo-1-phenyl-1,4-dihydro-quinoline-2-carboxylic acid methyl ester]",100 nM,32 µM

# Now from value to molecule:
IC50 (JNK1),EC50 [1],SMILES
7 nM,1.9 µM,"COC(=O)c1c(CNC(=O)c2ccc(OC)cc2)c(=O)c2ccc(Cl)cc2n1-c1ccccc1 [Example I-134, 7-Chloro-3-[(4-methoxybenzoylamino)-methyl]-4-oxo-1-phenyl-1,4-dihydro-quinoline-2-carboxylic acid methyl ester]"
38 nM,29 µM,"O=C(NCc1cn(-c2ccccc2)c2cc(Cl)ccc2c1=O)c1ccnc(N2CCCC2)c1 [Example I-32, N-(7-Chloro-4-oxo-1-phenyl-1,4-dihydro-quinolin-3-ylmethyl)-2-pyrrolidin-1-yl-isonicotinamide]"
13 nM,10 µM,"COC(=O)c1c(CNC(=O)c2cccc(F)c2)c(=O)c2ccc(Cl)cc2n1-c1ccccc1 [Example I-138, 7-Chloro-3-[(3-fluoro-benzoylamino)-methyl]-4-oxo-1-phenyl-1,4-dihydro-quinoline-2-carboxylic acid methyl ester]"
29 nM,100 µM,"NC(=O)N1CCN(c2ccc(C(=O)NCc3cn(-c4ccccc4)c4cc(Cl)ccc4c3=O)cn2)CC1 [Example I-73, 4-{5-[(7-Chloro-4-oxo-1-phenyl-1,4-dihydro-quinolin-3-ylmethyl)-carbamoyl]-pyridin-2-yl}-piperazine-1-carboxylic acid amide]"
22 nM,18 µM,"COC(=O)c1c(CNC(=O)c2ccc(-c3noc(C)n3)cc2)c(=O)c2ccc(Cl)cc2n1-c1ccccc1 [Example I-125, 7-Chloro-3-{[4-(5-methyl-[1,2,4]oxadiazol-3-yl)-benzoylamino]-methyl}-4-oxo-1-phenyl-1,4-dihydro-quinoline-2-carboxylic acid methyl ester]"
21 nM,17 µM,"O=C(NCc1cn(-c2ccccc2)c2cc(Cl)ccc2c1=O)c1ccc(N2CCCCCC2)nc1 [Example I-68, 6-Azepan-1-yl-N-(7-chloro-4-oxo-1-phenyl-1,4-dihydro-quinolin-3-ylmethyl)-nicotinamide]"
36 nM,14 µM,"O=C(NCc1cn(-c2ccccc2)c2cc(Cl)ccc2c1=O)c1cnc(N2CCC(O)CC2)s1 [Example I-94, 2-(4-Hydroxypiperidin-1-yl)-thiazole-5-carboxylic acid (7-chloro-4-oxo-1-phenyl-1,4-dihydro-quinolin-3-ylmethyl)-amide]"
34 nM,48 µM,"O=C(NCc1cn(-c2ccccc2)c2cc(Cl)ccc2c1=O)c1ccc(N2CCC(O)CC2)nc1 [Example I-76, 4-Hydroxy-3,4,5,6-tetrahydro-2H-[1,2′]bipyridinyl-5′-carboxylic acid (7-chloro-4-oxo-1-phenyl-1,4-dihydro-quinolin-3-ylmethyl)-amide]"
7 nM,2 µM,"COC(=O)c1c(CNC(=O)c2ccc3scnc3c2)c(=O)c2ccc(Cl)cc2n1-c1ccccc1 [Example I-113, 3-{[(Benzothiazole-5-carbonyl)-amino]-methyl}-7-chloro-4-oxo-1-phenyl-1,4-dihydro-quinoline-2-carboxylic acid methyl ester]"
14 nM,3 µM,"NC(=O)c1ccc(C(=O)NCc2c(-c3ncco3)n(-c3ccccc3)c3cc(Cl)ccc3c2=O)cc1 [Example I-4, N-(7-Chloro-2-oxazol-2-yl-4-oxo-1-phenyl-1,4-dihydro-quinolin-3-ylmethyl)-terephthalamide]"
15 nM,9.2 µM,"COC(=O)c1c(CNC(=O)c2ccc(Cl)cc2)c(=O)c2ccc(Cl)cc2n1-c1ccccc1 [Example I-132, 7-Chloro-3-[(4-chloro-benzoylamino)-methyl]-4-oxo-1-phenyl-1,4-dihydro-quinoline-2-carboxylic acid methyl ester]"
23 nM,88 µM,"COc1cc2ncnc(NCc3cn(-c4ccccc4)c4cc(Cl)ccc4c3=O)c2cc1OC [Example I-171, 7-Chloro-3-[(6,7-dimethoxy-quinazolin-4-ylamino)-methyl]-1-phenyl-1H-quinolin-4-one]"
15 nM,3 µM,"COC(=O)c1c(CNC(=O)c2ccc3cc[nH]c3c2)c(=O)c2ccc(Cl)cc2n1-c1ccccc1 [Example I-120, 7-Chloro-3-{[(1H-indole-6-carbonyl)-amino]-methyl}-4-oxo-1-phenyl-1,4-dihydro-quinoline-2-carboxylic acid methyl ester]"
23 nM,4.6 µM,"COC(=O)c1c(CNC(=O)c2ccc(-c3ncc[nH]3)cc2)c(=O)c2ccc(C(F)(F)F)nc2n1-c1ccccc1 [Example I-153, 3-{[4-(1H-Imidazol-2-yl)-benzoylamino]-methyl}-4-oxo-1-phenyl-7-trifluoromethyl-1,4-dihydro-[1,8]naphthyridine-2-carboxylic acid methyl ester]"
